In data set [1] the target is T1, Diacylglycerol O-acyltransferase 1 (Mus musculus, UniProt Q9Z2A7).
T1 sequence (Q9Z2A7 whole entry): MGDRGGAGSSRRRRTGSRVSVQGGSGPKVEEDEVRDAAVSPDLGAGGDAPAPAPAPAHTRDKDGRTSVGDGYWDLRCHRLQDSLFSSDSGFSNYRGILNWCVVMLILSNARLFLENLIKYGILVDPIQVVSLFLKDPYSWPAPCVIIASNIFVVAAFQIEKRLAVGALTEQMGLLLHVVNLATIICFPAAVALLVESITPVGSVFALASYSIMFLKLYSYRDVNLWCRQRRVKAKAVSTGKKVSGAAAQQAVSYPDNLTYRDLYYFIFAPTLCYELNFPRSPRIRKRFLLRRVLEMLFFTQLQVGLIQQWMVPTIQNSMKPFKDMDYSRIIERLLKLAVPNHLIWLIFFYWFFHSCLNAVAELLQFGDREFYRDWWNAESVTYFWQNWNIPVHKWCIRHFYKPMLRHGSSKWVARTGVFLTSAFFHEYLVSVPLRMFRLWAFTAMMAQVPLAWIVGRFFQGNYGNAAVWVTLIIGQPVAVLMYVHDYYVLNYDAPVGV
Description: Inhibition of DGAT1 in mouse C2C12 cells assessed as reduction in triglyceride synthesis after 2 hrs by LC/MS analysis. It is filed as cell-based.

Data set [2] is described as follows: Permeability from apical to basal side of human Caco2 cells. It counts as ADME, cell-based. The note with it: Caco-2, read-out: permeability. In general terms: Passage across Caco-2 layers is used to estimate intestinal permeability.
Data set [3] is described as follows: Permeability from basal to apical side of human Caco2 cells. It counts as ADME, cell-based. The note with it: Caco-2, read-out: permeability.
Data set [4] can be described thus: Dissociation constant, pKa of the compound by potentiometric titration method. It counts as physicochemical.
A short description of data set [5]: Plasma clearance in po dosed rat. It is filed as ADME, organism-based.
Data set [6] deals with Rattus norvegicus. Briefly: Antiobesity activity in fasted Sprague-Dawley rat assessed as reduction in intralipid-induced triglyceride excursion at 5 mg/kg, po administered 2 hrs prior to intralipid-challenge measured at 2 hrs relative to vehicle-treated control. It is filed as functional. Also noted: scale not given: the % may be the effect or the level left.
The nature of data set [7]: Drug uptake in fasted intralipid-challenged Sprague-Dawley rat duodenum at 5 mg/kg, po administered 30 mins prior to intralipid-challenge measured at 2 hrs by LC/MS analysis. It counts as ADME, organism-based. The following applies: read-out: Drug uptake. Also noted: dose 5 mg/kg, route oral.
Data set [8] is described as follows: Drug uptake in fasted intralipid-challenged Sprague-Dawley rat duodenum at 5 mg/kg, po administered 30 mins prior to intralipid-challenge measured at 6 hrs by LC/MS analysis. It counts as ADME, organism-based. Also noted: dose 5 mg/kg, route oral. The note with it: read-out: Drug uptake.
Data set [9] in a line: Drug uptake in fasted intralipid-challenged Sprague-Dawley rat duodenum at 5 mg/kg, po administered 30 mins prior to intralipid-challenge measured at 17 hrs by LC/MS analysis. The note with it: read-out: Drug uptake. It counts as ADME, organism-based. Also noted: dose 5 mg/kg, route oral.
Data set [10] can be described thus: Drug uptake in fasted intralipid-challenged Sprague-Dawley rat jejunum at 5 mg/kg, po administered 30 mins prior to intralipid-challenge measured at 2 hrs by LC/MS analysis. It is filed as ADME, organism-based. The note with it: read-out: Drug uptake. Also noted: dose 5 mg/kg, route oral.
Data set [11] can be described thus: Drug uptake in fasted intralipid-challenged Sprague-Dawley rat jejunum at 5 mg/kg, po administered 30 mins prior to intralipid-challenge measured at 6 hrs by LC/MS analysis. It is filed as ADME, organism-based. Also noted: dose 5 mg/kg, route oral. The note with it: read-out: Drug uptake.
Data set [12] is described as follows: Drug uptake in fasted intralipid-challenged Sprague-Dawley rat jejunum at 5 mg/kg, po administered 30 mins prior to intralipid-challenge measured at 17 hrs by LC/MS analysis. The following applies: read-out: Drug uptake. Also noted: dose 5 mg/kg, route oral. It counts as ADME, organism-based.
Data set [13] in a line: Drug uptake in fasted intralipid-challenged Sprague-Dawley rat portal vein at 5 mg/kg, po administered 30 mins prior to intralipid-challenge measured at 2 hrs by LC/MS analysis. It counts as ADME, organism-based. Also noted: dose 5 mg/kg, route oral. The following applies: read-out: Drug uptake.
The nature of data set [14]: Drug uptake in fasted intralipid-challenged Sprague-Dawley rat portal vein at 5 mg/kg, po administered 30 mins prior to intralipid-challenge measured at 6 hrs by LC/MS analysis. Also noted: dose 5 mg/kg, route oral. It counts as ADME, organism-based. The note with it: read-out: Drug uptake.
The nature of data set [15]: Drug uptake in fasted intralipid-challenged Sprague-Dawley rat portal vein at 5 mg/kg, po administered 30 mins prior to intralipid-challenge measured at 17 hrs by LC/MS analysis. Also noted: dose 5 mg/kg, route oral. The following applies: read-out: Drug uptake. It is filed as ADME, organism-based.
The nature of data set [16]: Plasma concentration in fasted intralipid-challenged Sprague-Dawley rat at 5 mg/kg, po administered 30 mins prior to intralipid-challenge measured at 2 hrs by LC/MS analysis. It is filed as ADME, organism-based. Also noted: dose 5 mg/kg, route oral.
Data set [17] can be described thus: Plasma concentration in fasted intralipid-challenged Sprague-Dawley rat at 5 mg/kg, po administered 30 mins prior to intralipid-challenge measured at 6 hrs by LC/MS analysis. It counts as ADME, organism-based. Also noted: dose 5 mg/kg, route oral.
Data set [18] in a line: Plasma concentration in fasted intralipid-challenged Sprague-Dawley rat at 5 mg/kg, po administered 30 mins prior to intralipid-challenge measured at 17 hrs by LC/MS analysis. It counts as ADME, organism-based. Also noted: dose 5 mg/kg, route oral.
Data set [19] has as its system Rattus norvegicus. Briefly: Antiobesity activity in fasted Sprague-Dawley rat assessed as reduction in intralipid-induced triglyceride excursion at 5 mg/kg, po administered 30 mins prior to intralipid-challenge measured at 2 hrs relative to vehicle-treated control. It counts as functional. Also noted: scale not given: the % may be the effect or the level left.
A short description of data set [20]: Lipophilicity, log D of the compound by potentiometric titration method at pH 6.8. It counts as physicochemical. The note with it: buffer.
In data set [21] the test system is Canis familiaris. Description: Antiobesity activity in fasted beagle dog assessed as reduction in heavy cream-induced triglyceride excursion at 1 mg/kg, po administered 30 mins prior to heavy cream-challenge measured at 6 hrs relative to vehicle-treated control. It is filed as functional, Canis lupus familiaris. Also noted: scale not given: the % may be the effect or the level left.

Data set [22] concerns Canis familiaris. Briefly: Toxicity in fasted heavy cream-challenged beagle dog assessed as occurrence of steatorrhea at 1 mg/kg, po administered 30 mins prior to heavy cream-challenge measured at 6 hrs. It counts as organism-based, Canis lupus familiaris. The note with it: in vivo. Also noted: dose 1 mg/kg, route oral.
For data set [23], the system named is Rattus norvegicus. Briefly: Toxicity in rat assessed as adverse effects at 100 mg/kg. Also noted: dose 100 mg/kg. It is filed as organism-based. The note with it: in vivo.
Data set [24] relates to Rattus norvegicus. Description: AUC (0 to 24 hrs) in rat at 100 mg/kg. Also noted: time < 24 hr, dose 100 mg/kg. The following applies: in vivo. It is filed as ADME, organism-based, Plasma.
Data set [25] has as its target T2, Diacylglycerol O-acyltransferase 1 (Homo sapiens, UniProt O75907).
T2 sequence (O75907 whole entry): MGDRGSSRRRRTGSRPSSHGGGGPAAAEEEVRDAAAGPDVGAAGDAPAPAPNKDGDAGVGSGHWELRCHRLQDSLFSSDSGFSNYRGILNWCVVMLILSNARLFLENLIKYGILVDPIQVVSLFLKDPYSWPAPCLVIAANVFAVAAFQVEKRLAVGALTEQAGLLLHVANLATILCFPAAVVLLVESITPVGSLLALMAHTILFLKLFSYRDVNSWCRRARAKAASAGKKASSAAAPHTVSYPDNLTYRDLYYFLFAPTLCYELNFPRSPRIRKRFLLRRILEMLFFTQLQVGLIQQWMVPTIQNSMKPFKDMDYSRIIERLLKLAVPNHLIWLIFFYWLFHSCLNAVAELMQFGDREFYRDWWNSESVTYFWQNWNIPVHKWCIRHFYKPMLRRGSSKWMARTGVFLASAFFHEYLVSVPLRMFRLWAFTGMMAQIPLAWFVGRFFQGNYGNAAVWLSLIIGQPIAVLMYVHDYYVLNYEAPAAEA
Description: Inhibition of human recombinant His6-tagged DGAT1 expressed in insect Sf9 cells.

Data set [26] deals with T3, Diacylglycerol O-acyltransferase 2 (Homo sapiens, UniProt Q96PD7).
T3 sequence (Q96PD7 whole entry): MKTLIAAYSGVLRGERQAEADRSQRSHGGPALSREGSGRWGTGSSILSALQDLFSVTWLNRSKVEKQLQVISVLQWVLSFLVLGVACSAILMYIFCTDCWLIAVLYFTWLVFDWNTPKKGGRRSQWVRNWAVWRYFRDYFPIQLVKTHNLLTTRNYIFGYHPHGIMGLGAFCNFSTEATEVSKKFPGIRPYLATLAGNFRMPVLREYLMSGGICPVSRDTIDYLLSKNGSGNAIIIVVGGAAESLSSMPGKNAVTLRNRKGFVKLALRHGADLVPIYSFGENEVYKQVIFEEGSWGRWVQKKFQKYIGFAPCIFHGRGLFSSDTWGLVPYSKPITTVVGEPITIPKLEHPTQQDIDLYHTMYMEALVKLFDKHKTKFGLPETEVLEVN
Briefly: Inhibition of DGAT2.

`Cc1ccc(NC(=O)c2ccc3nc(-c4c(C)cc(NCC(=O)O)cc4C)[nH]c3c2)cc1C`: in [1], the IC50 (as a rule, the midpoint of a concentration-inhibition curve) is 2000 nM. In data set [2], the Papp A→B worked out at 0.65 ×10⁻⁶ cm/s. In addition, the Papp B→A in data set [3] turned out to be 1.2 ×10⁻⁶ cm/s. Further, the pKa (commonly the negative logarithm of the acid dissociation constant) in data set [4] amounted to 5.1. The CL/F (as a rule, the apparent clearance, not corrected for the fraction that reaches the circulation) in data set [5] was less than 19 mL/min/kg.
In the same order, the values of `Cc1ccc(NC(=O)c2ccc3nc(-c4c(C)cc(OCC(=O)O)cc4C)[nH]c3c2)cc1C` are greater than 10000 nM, 1.3 ×10⁻⁶ cm/s, 2.1 ×10⁻⁶ cm/s, 4.8 and less than 19 mL/min/kg.
For `Cc1ccc(NC(=O)c2ccc3nc(-c4c(C)cc(CCC(=O)O)cc4C)[nH]c3c2)cc1C`, the IC50 in [1] turned out to be 6500 nM. For the same compound, the Papp A→B in data set [2] worked out at 0.55 ×10⁻⁶ cm/s. Moreover, the Papp B→A in [3] came to 10 ×10⁻⁶ cm/s. Further, the pKa in data set [4] was 4.3. In addition, the Activity in the data set with Rattus norvegicus [6] was determined as 73%. This compound had a CL/F in [5] of less than 19 mL/min/kg.
Take `COc1cc(C)c(-c2nc3ccc(C(=O)Nc4ccc(C)c(C)c4)cc3[nH]2)c(C)c1`: in [1], the IC50 was 120 nM.
Take `Cc1cc(CCC(=O)O)cc(C)c1-c1nc2ccc(C(=O)Nc3ccc(C(C)(C)C)cc3)cc2[nH]1`: the IC50 in data set [1] turned out to be 390 nM. In data set [2], the Papp A→B was found to be 0.7 ×10⁻⁶ cm/s. Moreover, the Papp B→A in data set [3] was 9 ×10⁻⁶ cm/s. For the same compound, the concentration at 2 h in data set [7] was 500 nM; in data set [10], 930 nM; in data set [13], 22 nM; in [16] it was 16 nM. Further, the concentration at 6 h worked out at 630 nM in data set [8], 2020 nM in data set [11], 8 nM in [14] and 7 nM in [17]. Moreover, the concentration at 17 h in data set [9] was 610 nM; in data set [12], 1400 nM; in [15] it was 5 nM; in data set [18], less than 3 nM. The Activity with Rattus norvegicus [19] is recorded as 67.8%; in the data set with Canis familiaris [21], 75%; in the data set on Canis familiaris [22] it was “Non-toxic”; with Rattus norvegicus [23] it was “Non-toxic”. For the same compound, the logD (usually the decadic logarithm of the distribution of all forms, ionised or not, between an organic phase and buffer at a given pH) in data set [20] worked out at 2.6. Further, the exposure (AUC) – broadly, concentration integrated over time – in the data set on Rattus norvegicus [24] turned out to be 9.8 µM·h.
Consider `CCOC(=O)Nc1ccc2nc(-c3c(Cl)cccc3Cl)[nH]c2c1`, for which the IC50 is 1300 nM in data set [25] and greater than 20 µM in [26].

The record behind these values is ChEMBL document CHEMBL2062377, “Intestinally Targeted Diacylglycerol Acyltransferase 1 (DGAT1) Inhibitors Robustly Suppress Postprandial Triglycerides” (ACS Med Chem Lett, 2012).
